# Results taken from patent US6525001B1, “Substituted pyrimidine and pyridine herbicides” (Mid-American Commercialization Corporation, priority 1997, dated 2003).
# Experiments:
# Type in all cases: in vivo
# [1] = system: fall panicum (Panicum dichotomiflorum); assay: Test C; conditions: PREEMERGENCE
# [2] = system: sourgrass (Trichachne insularis); assay: Test E pre-/postemergence/post directed; set-up: key: 0 is no effect; 100 is complete control
# How it was run: (§1)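 Injury was scored visually on a 0 to 100 scale (100 = complete control) 13 to 21 days after treatment of greenhouse-grown plants. Test chemicals, in a surfactant-containing non-phytotoxic solvent, were sprayed onto soil within a day of planting, onto plants at the two to four leaf stage, or directed at the base of the plants.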
# [3] = system: tall mallow (Malva sylvestris); assay: Test E pre-/postemergence/post directed; set-up: key: 0 is no effect; 100 is complete control; conditions: PREEMERGENCE
# How it was run: as §1
# [4] = system: common ragweed (Ambrosia elatior); assay: Test E pre-/postemergence/post directed; set-up: key: 0 is no effect; 100 is complete control; conditions: PREEMERGENCE
# How it was run: as §1
# [5] = system: common groundsel (Senecio vulgaris); assay: Test E pre-/postemergence/post directed; set-up: key: 0 is no effect; 100 is complete control; conditions: PREEMERGENCE
# How it was run: as §1
# [6] = system: goosegrass (Eleusine indica); assay: Test E pre-/postemergence/post directed; set-up: key: 0 is no effect; 100 is complete control
# How it was run: as §1
# [7] = system: large crabgrass (Digitaria sanguinalis); assay: Test E pre-/postemergence/post directed; set-up: key: 0 is no effect; 100 is complete control; conditions: PREEMERGENCE
# How it was run: as §1
# [8] = system: dallisgrass (Paspalum dilatatum); assay: Test E pre-/postemergence/post directed; set-up: key: 0 is no effect; 100 is complete control
# How it was run: as §1
# [9] = system: common purslane (Portulaca oleracea); assay: Test E pre-/postemergence/post directed; set-up: key: 0 is no effect; 100 is complete control
# How it was run: as §1
# [10] = system: guineagrass (Panicum maximum); assay: Test E pre-/postemergence/post directed; set-up: key: 0 is no effect; 100 is complete control
# How it was run: as §1
# [11] = system: surinam grass (Brachiaria decumbens); assay: Test E pre-/postemergence/post directed; set-up: key: 0 is no effect; 100 is complete control; conditions: PREEMERGENCE, Rate 250 g/ha
# How it was run: as §1
# [12] = system: bermudagrass (Cynodon dactylon); assay: Test E pre-/postemergence/post directed; set-up: key: 0 is no effect; 100 is complete control; conditions: PREEMERGENCE
# How it was run: as §1
# [13] = system: johnsongrass (Sorghum halepense); assay: Test C; set-up: key: 0 was no effect; 100 was complete control; conditions: PREEMERGENCE
# [14] = system: common ragweed (Ambrosia elatior); assay: Test C; set-up: key: 0 was no effect; 100 was complete control; conditions: PREEMERGENCE
# [15] = system: barnyardgrass (Echinochloa crus-galli); assay: Test C; set-up: key: 0 was no effect; 100 was complete control; conditions: PREEMERGENCE
# [16] = system: redroot pigweed (Amaranthus retroflexus); assay: Test C; set-up: key: 0 was no effect; 100 was complete control; conditions: PREEMERGENCE
# [17] = system: winter barley (Hordeum vulgare); assay: Test D; conditions: PREEMERGENCE
# [18] = system: ladysthumb smartweed (Polygonum persicaria); assay: Test C; conditions: PREEMERGENCE
# [19] = system: velvetleaf (Abutilon theophrasti); assay: Test C; set-up: key: 0 was no effect; 100 was complete control; conditions: PREEMERGENCE
smiles,measurement,setting,value
"Cc1cnc(-c2ccc(C(F)(F)F)cc2)nc1Cc1cccc(C(F)(F)F)c1 [Example 1, 5-methyl-2-[4-(trifluoromethyl)phenyl]-4-[[3-(trifluoromethyl)phenyl]methyl]pyrimidine]","Plant response rating, Fall panicum",[1]; Rate 35 g/ha,90
same,"Plant response rating, Fall panicum",[1]; Rate 70 g/ha,90
same,"Plant response rating, Fall panicum",[1]; Rate 140 g/ha,95
same,"Plant response rating, Sourgrass","[2]; POSTEMERGENCE, Rate 250 g/ha",30
same,"Plant response rating, Sourgrass","[2]; PREEMERGENCE, Rate 32 g/ha",100
same,"Plant response rating, Sourgrass","[2]; PREEMERGENCE, Rate 64 g/ha",100
same,"Plant response rating, Sourgrass","[2]; PREEMERGENCE, Rate 125 g/ha",100
same,"Plant response rating, Sourgrass","[2]; PREEMERGENCE, Rate 250 g/ha",100
same,"Plant response rating, Tall Mallow",[3]; Rate 32 g/ha,100
same,"Plant response rating, Tall Mallow",[3]; Rate 64 g/ha,100
same,"Plant response rating, Tall Mallow",[3]; Rate 125 g/ha,100
same,"Plant response rating, Tall Mallow",[3]; Rate 250 g/ha,100
same,"Plant response rating, Com. ragweed",[4]; Rate 64 g/ha,100
same,"Plant response rating, Com. ragweed",[4]; Rate 125 g/ha,100
same,"Plant response rating, Com. ragweed",[4]; Rate 250 g/ha,100
same,"Plant response rating, Com. groundsel",[5]; Rate 64 g/ha,100
same,"Plant response rating, Com. groundsel",[5]; Rate 125 g/ha,100
same,"Plant response rating, Com. groundsel",[5]; Rate 250 g/ha,100
same,"Plant response rating, Goosegrass","[6]; POSTEMERGENCE, Rate 250 g/ha",70
same,"Plant response rating, Goosegrass","[6]; PREEMERGENCE, Rate 32 g/ha",100
same,"Plant response rating, Goosegrass","[6]; PREEMERGENCE, Rate 64 g/ha",100
same,"Plant response rating, Goosegrass","[6]; PREEMERGENCE, Rate 125 g/ha",100
same,"Plant response rating, Goosegrass","[6]; PREEMERGENCE, Rate 250 g/ha",100
same,"Plant response rating, Large crabgrass",[7]; Rate 32 g/ha,100
same,"Plant response rating, Large crabgrass",[7]; Rate 64 g/ha,100
same,"Plant response rating, Large crabgrass",[7]; Rate 125 g/ha,100
same,"Plant response rating, Large crabgrass",[7]; Rate 250 g/ha,100
same,"Plant response rating, Dallisgrass","[8]; POSTEMERGENCE, Rate 250 g/ha",90
same,"Plant response rating, Dallisgrass","[8]; PREEMERGENCE, Rate 32 g/ha",98
same,"Plant response rating, Dallisgrass","[8]; PREEMERGENCE, Rate 64 g/ha",100
same,"Plant response rating, Dallisgrass","[8]; PREEMERGENCE, Rate 125 g/ha",100
same,"Plant response rating, Dallisgrass","[8]; PREEMERGENCE, Rate 250 g/ha",100
same,"Plant response rating, Com. purslane","[9]; POSTEMERGENCE, Rate 250 g/ha",40
same,"Plant response rating, Com. purslane","[9]; PREEMERGENCE, Rate 32 g/ha",98
same,"Plant response rating, Com. purslane","[9]; PREEMERGENCE, Rate 64 g/ha",100
same,"Plant response rating, Com. purslane","[9]; PREEMERGENCE, Rate 125 g/ha",100
same,"Plant response rating, Com. purslane","[9]; PREEMERGENCE, Rate 250 g/ha",100
same,"Plant response rating, Guineagrass","[10]; POSTEMERGENCE, Rate 250 g/ha",70
same,"Plant response rating, Guineagrass","[10]; PREEMERGENCE, Rate 32 g/ha",90
same,"Plant response rating, Guineagrass","[10]; PREEMERGENCE, Rate 64 g/ha",100
same,"Plant response rating, Guineagrass","[10]; PREEMERGENCE, Rate 125 g/ha",100
same,"Plant response rating, Guineagrass","[10]; PREEMERGENCE, Rate 250 g/ha",100
same,"Plant response rating, Surinam grass",[11],100
same,"Plant response rating, Bermudagrass",[12]; Rate 32 g/ha,100
same,"Plant response rating, Bermudagrass",[12]; Rate 64 g/ha,100
same,"Plant response rating, Bermudagrass",[12]; Rate 125 g/ha,100
same,"Plant response rating, Bermudagrass",[12]; Rate 250 g/ha,100
same,"Plant response rating, Johnsongrass",[13]; Rate 35 g/ha,50
same,"Plant response rating, Johnsongrass",[13]; Rate 70 g/ha,95
same,"Plant response rating, Johnsongrass",[13]; Rate 140 g/ha,100
same,"Plant response rating, Common ragweed",[14]; Rate 35 g/ha,80
same,"Plant response rating, Common ragweed",[14]; Rate 70 g/ha,100
same,"Plant response rating, Common ragweed",[14]; Rate 140 g/ha,100
same,"Plant response rating, Barnyardgrass",[15]; Rate 35 g/ha,20
same,"Plant response rating, Barnyardgrass",[15]; Rate 70 g/ha,75
same,"Plant response rating, Barnyardgrass",[15]; Rate 140 g/ha,100
same,"Plant response rating, Redroot pigweed",[16]; Rate 35 g/ha,100
same,"Plant response rating, Redroot pigweed",[16]; Rate 70 g/ha,100
same,"Plant response rating, Redroot pigweed",[16]; Rate 140 g/ha,100
same,"Plant response rating, Barley (winter)",[17]; Rate 31 g/ha,10
same,"Plant response rating, Barley (winter)",[17]; Rate 62 g/ha,20
same,"Plant response rating, Barley (winter)",[17]; Rate 125 g/ha,30
same,"Plant response rating, Barley (winter)",[17]; Rate 250 g/ha,40
same,"Plant response rating, Ladysthumb",[18]; Rate 35 g/ha,25
same,"Plant response rating, Ladysthumb",[18]; Rate 70 g/ha,90
same,"Plant response rating, Ladysthumb",[18]; Rate 140 g/ha,95
same,"Plant response rating, Velvetleaf",[19]; Rate 35 g/ha,20
same,"Plant response rating, Velvetleaf",[19]; Rate 70 g/ha,75
same,"Plant response rating, Velvetleaf",[19]; Rate 140 g/ha,100
